We go through 1 compound from US5328913A, “Minoxidil analogs as inhibitors of cell proliferation and lysyl hydroxylase” (priority 1992, dated 1994).

The test system of assay [1] is lysyl hydroxylase. To be noted: Murad and Pinnell 1987; cited from earlier work.
Assay [2] concerns lysyl hydroxylase. The assay can be described thus: Lysyl hydroxylase activity in fibroblasts treated with minoxidil and its hydroxy derivatives (Example 3). The format is cell-based, human. As to conditions: for Fibroblast Lysyl Hydroxylase Activity: 48 hr. As for the experimental part: Culture of human skin fibroblasts derived from an apparently normal adult were grown to confluent densities in Dulbecco's modified Eagle's medium supplemented with 10% (v/v) fetal calf serum. Thereafter, the medium was replaced with medium supplemented with 0.5% dialyzed fetal calf serum. […] In some experiments, minoxodil was dissolved in 95% (v/v) ethanol; the final concentration of minoxidil was 0.3 mM and that of ethanol was 0.3%. Cultures treated with ethanol only served as the control.
During the last 3 hr of treatment, cultures received 100 μM ascorbic acid. The enzyme activities in extracts of treated cells were measured by tritium-release assays described previously (Murad and Pinnell, J. Biol. Chem. 262:11,973 (1987)).

In the next assay the test system is prolyl hydroxylase. The assay can be described thus: Prolyl hydroxylase activity in extracts of treated human skin fibroblasts (Example 1, tritium-release assay). Format: cell-based. As to conditions: cultured fibroblasts, 72 h, Example 1. As to the method:
Cultures of human skin fibroblasts grown to confluence were incubated for 72 h in medium supplemented with 1% ethanol containing various concentrations of minoxidil or deoxyminoxidil as indicated. Cells were then harvested, and the enzyme activities in extracts of these cells were measured by tritium-release assays (Murad and Pinnell, J. Biol. Chem. 262:11,973 (1987)). The results are expressed as percentages of zero-concentration values.
Cultures of human skin fibroblasts grown to confluence were incubated for 72 h in medium supplemented with 1% ethanol containing various concentrations of minoxidil or with 1% acetone containing various concentrations of minoxidil sulfate, as indicated. Cells were then harvested, and the enzyme activities in extracts of these cells were measured by tritium release assays (Murad and Pinnell, J. Biol. Chem. 262:11,973 (1987)). The results are expressed as percentages of zero-concentration values.
Skin fibroblast cultures derived from an apparently normal child (GM05659) were obtained from the Institute for Medical Research, Camden, N.J. The cells were subcultured by trypsinization and used before 25 population doublings. Typically, 4×10^5 cells were seeded onto 100-mm (diameter) plastic petri dishes and allowed to grow in 10 ml of Dulbecco's modified Eagle's minimum essential medium containing 5.6 mM glucose, buffered in pH 7.4 with 24 mM sodium biocarbonate/25 mM Hepes and supplemented with 20% (v/v) calf serum which had been inactivated for 30 min at 56° C. The cells were incubated at 37° C. in a humidified atmosphere of 5% CO2 plus 95% air.
After a week, the medium was replaced with medium supplemented with 0.5% heat-inactivated diaylzed calf serum, and the incubation was continued for 72 h in the presence of minoxidil or one of its structural analogs. The compounds were dissolved in 95% ethanol, except minoxidil sulfate which was dissolved in acetone; the final solvent concentration was 1% (v/v). During the last 3 h of incubation, cells received 100 μM Na L-ascorbate to ensure complete hydroxylation of the polypeptide precursors of precollagen (Murad et al, J. Invest. Dermatol. 75:404 (1980)).
The medium was then removed and the cells were washed twice with a solution containing 0.14 M NaCl, 5 mM KCl, 0.3 mM Na2 PO4, and 0.4 mM KH2 PO4, adjusted to pH 7.4. […] The trypsinization was terminated with 2 vol of 20% serum-supplemented medium, and the cell number in an aliquot of the suspension was determined using a Coulter counter. […]
The protein content of cell extracts was determined by a dye-binding technique using Bio-Rad reagent and protein standard (Bradford, Anal. Biochem. 72:248 (1976)).

For assay [3] the following is noted: in vivo; cited from earlier work.

Structures are written as SMILES.

In the case of `Nc1cc(N2CCCCC2)nc(N)[n+]1[O-]` [Minoxidil], the “effect on lysyl hydroxylase in cultured fibroblasts (in words)” value in the assay with lysyl hydroxylase [1] was “selectively decreased the activity of lysyl hydroxylase”. The “Fibroblast Lysyl Hydroxylase Activity” value in the assay on lysyl hydroxylase [2] (1 mM) was 378 cpm^3 H2 O/mg protein; in the assay on lysyl hydroxylase [2] (5 mM), 1321 cpm^3 H2 O/mg protein. The “Lysyl hydroxylase activity, % of control level” value with lysyl hydroxylase [2] (1 mM, 72 hr) was 25%. Further, the “Lysyl Hydroxylase Activity” value with lysyl hydroxylase [2] (1 mM, 72 hr (Table VI)) was 308 cpm ^3 H2 O/mg protein; in the assay with lysyl hydroxylase [2] (1 mM, 72 hr (description table)), 308 cpm^3 H2 O/mg protein. Also, in the assay on lysyl hydroxylase [2] (5 mM), the “lysyl hydroxylase suppressing activity at 5 mM (in words)” value was “loses its effect”. Further, in the assay on prolyl hydroxylase, the “effect on prolyl hydroxylase activity (in words)” value is reported as “no significant effect on prolyl hydroxylase activity”. Moreover, the “antihypertensive / hypotensive activity (in words)” value in assay [3] was “hypotensive activity”.
